Laboratory results taken from patent EP2845588A1, “PIN1 inhibitors for use in the prevention and/or treatment of theileriosis, and related applications” (Centre National de la Recherche Scientifique (CNRS), priority 2013, dated 2015).

Legend:
Assay type in all cases: cell-based, bovine
[1] = test system: PKM2, HIF1α, Hexokinase II and PDK1 in TBL3 cells; assay: Immunoblot of PKM2, HIF1α, Hexokinase II and PDK1 in TBL3 cells
Method: (§1) Total proteins were extracted with Laemmli lysis, sonicated: 15 secs ON / 30 secs OFF for 5 min, resolved on 10.5% acrylamide/bis-acrylamide SDS-PAGE gels and transferred to nitrocellulose membranes (Thermo Fisher Scientific, MA, USA) in transfer buffer. Protein transfer was assessed by Ponceau-red staining. Membranes were blocked in Tris-buffered saline pH7.4 containing 0.1% Tween-20 and 5% milk for 1 h at room temperature. Incubations with primary antibodies were carried out at 4°C overnight using antibody dilutions as manufacturer recommendations in Trisbuffered saline pH7.4, 0.05% Tween-20 and 5% milk. Following 1 h incubation with an anti-rabbit or anti-mouse peroxidase-conjugated antibody (Sigma, St Louis, MO, USA) at room temperature, proteins were detected by chemiluminescence (Thermo Fisher Scientific, MA, USA) following the manufacturer's instructions. The following antibodies were used: Rabbit anti-TaPIN (Home-made antibody, Proteogenix, Peptide used: […]-Cys), rabbit anti-PIN1 (Cell Signaling, Ref: 3722), rabbit anti-TaActin (kindly provided by Jake Baum, Australia), rabbit anti-c-Jun (Santa Cruz, CA, USA Ref: sc1694), mouse anti-αTubulin (Sigma, Ref: T9026), , rabbit anti-HIF1α (Abcam, Cambridge, UK; Ref: ab75918), rabbit anti-Hexokinase II (Cell Signaling, Ref: C64G5), rabbit anti-PDK1 (Cell signaling, Ref: C47H1), mouse anti-HA (Roche, Ref: 11583816001), rabbit anti-FBW7 (Bethyl Laboratories, Ref: A301-721A), rabbit anti-Histone H3 (Abcam, Ref: ab1791), rabbit anti-PKM2 (Abcam, Ref: ab38237), mouse anti-Actin (Sigma, Ref: A1978) and monoclonal anti-FLAG M2-Peroxidase (Sigma, Ref: A8592). c-Jun, FBW7 or PKM2/Actin ratios were calculated after Western blot signal quantification with the Plot Lanes Analysis tool of Image J software (National Institutes of Health, Bethesda, MD, USA).

[2] = test system: FBW7 and c-Jun mRNA in TBL3 cells; assay: RT-qPCR of FBW7 and c-Jun mRNA in TBL3 cells
Method: Total cellular RNAs were extracted using an RNeasy Plus Mini Kit (Qiagen, Hilden, Germany) and parasite RNAs were extracted using the classical Trizol Protocol. cDNA synthesis was performed with the Reverse Transcriptase Superscript III (Invitrogen, CA, USA).
Quantitative PCR amplification was performed in the ABI 7500 machine (Applied Biosystems, CA, USA) using the Sybr Green reagent (Applied Biosystems, CA, USA) using the primers listed in Table 5 below. The detection of a single product was verified by dissociation curve analysis. Relative quantities of mRNA were analyzed using the delta Ct method. The βactin qPCR was used for normalization. Table 5: qPCR primers

[3] = test system: Parasite-infected TBL3 cells; assay: Cell proliferation, live cell count after trypan blue exclusion, TBL3; conditions: live cells counted after trypan blue exclusion
Method: (§2) All infected bovine cell lines used in this study were previously described: TBL3 cells were derived from in vitro infection of the spontaneous bovine-B lymphosarcoma cell line, BL3, with Hissar stock of T.annulata. The TpMD409 lymphocyte cell line are infected with T. parva. The culture conditions of these cell lines were previously described by Moreau et al., 1999. Cells were cultured in RPMI 1640 (Gibco-BRL, Paisley, UK), supplemented with 10% heat-inactivated Fetal calf serum, 4mM L-Glutamine, 25mM HEPES, 10µM β-mercaptoethanol and 100µg/ml penicillin/streptomycin in a humidified 5%CO2 atmosphere at 37°C. HepG2, NIH/3T3 and MEF cells lines were cultured in DMEM (Gibco-BRL, Paisley, UK), supplemented with 10% heat-inactivated Fetal calf serum, 4mM L-Glutamine, 25 mM HEPES, 10µM β-mercaptoethanol and 100µg/ml penicillin/streptomycin in a humidified 5% CO2 atmosphere at 37°C. Cell numbers, as judged by Trypan Blue exclusion test, were determined by counting cells using a Countess automated cell counter (Invitrogen, CA, USA). The anti-parasite drug Buparvaquone (BW720c) was used at 200ng/ml for 72 hours. BW720c has no effect on growth of uninfected cells. […]

[4] = test system: parasite-infected cells (Theileria annulata - TBL3); assay: Cell viability XTT assay, TBL3
Method: as §2

[5] = test system: FBW7 and c-Jun in TBL3 cells; assay: Immunoblot of FBW7 and c-Jun protein in TBL3 cells
Method: as §1

[6] = test system: parasite-infected cells (Theileria parva - TpMD409); assay: Cell viability XTT assay, TpMD409; conditions: 72h
Method: as §2

[7] = test system: HIF1alpha transcriptional activity; assay: HRE-Luciferase reporter assay
Method: Bovine cells were transfected with the 5xHRE (Staller et al., 2003) or CyclinD1- (Wulf et al., 2001) Luciferase reporters, using electroporation (Neon kit, Invitrogen, CA, USA). Mouse cells were transfected using Lipofectamine 2000 (Invitrogen, CA, USA). Transfections efficiencies were normalized to Renilla activity by co-transfection of a pRL-TK Renilla reporter plasmid (Promega, Ref.: E6241). Luciferase assays were performed 36h post-transfection using the Dual-Luciferase Reporter Assay System (Promega, Ref: E1980) in a microplate luminometer. Relative luminescence was represented as the ratio Firefly/Renilla luminescence, compared with the corresponding empty vector control. The 5xHRE promoter-Luciferase construct was obtained from P Staller (Biotech Research & Innovation Centre, Copenhagen, […]).

[8] = test system: Parasite-infected TBL3 cells; assay: Soft agar colony forming assay, TBL3; conditions: colonies counted 10 days after plating
Method: as §2, with “HepG2, NIH/3T3 and MEF cells lines were cultured in DMEM (Gibco-BRL, Paisley, UK), supplemented with 10% heat-inactivated Fetal calf serum, 4mM L-Glutamine, 25 mM HEPES, 10µM β-mercaptoethanol and 100µg/ml penicillin/streptomycin in a humidified 5% CO2 atmosphere at 37°C.” left out, “USA).” for “USA). The anti-parasite drug Buparvaquone (BW720c) was used at 200ng/ml for 72 hours. BW720c has no effect on growth of uninfected cells.”
A two-layer soft agar culture system was used. […] Cultures were incubated in humidified 37°C incubators with an atmosphere of 5%CO2 in air, and control plates were monitored for growth using a microscope. At the time of maximum colony formation (10 days in culture), final colony numbers were counted manually after fixation a staining with 0.005% Crystal Violet (Sigma, Ref.: C3886).

Structure (SMILES) | HIF1α protein expression [1] | PKM2 protein expression [1] | Hexokinase II ([1]; HIF1α target gene) | PDK1 ([1]; HIF1α target gene) | mRNA expression [2] | cell proliferation [3] | viability of parasite-infected cells ([4]; TBL3, 72h, XTT assay) | FBW7 protein [5] | c-Jun levels [5] | viability of parasite-infected cells [6] | HIF1alpha transcriptional activity [7] | transformed phenotype, colonies in soft agar [8] | host cell viability ([4]; PiB, infected cell line not given)
CC(C)(C)C1CCC(CC2=C(O)C(=O)c3ccccc3C2=O)CC1 (stereo not shown) [Buparvaquone, 2-((4-tert-butylcyclohexyl)methyl)-3-hydroxy-1,4-naphthoquinone] | reduced | reduced | reduced | reduced | no effect | reduced | decreased the viability | induced | reduced | decreased the viability | reduced | reversed the transformed phenotype | 
CCOC(=O)CN1C(=O)c2ccc3c4c(ccc(c24)C1=O)C(=O)N(CC(=O)OCC)C3=O [PiB, benzo[Imn][3,8]phenanthroline-2,7-diacetic acid, 1,3,6,8-tetrahydro-1,3,6,8-tetraoxo-, diethyl ester] |  |  |  |  | no effect | affects TBL3 cell proliferation |  | induced | reduced |  | reduced | reduced | reduced
